According to the supplement of paper PMC10883282:

Experiments:
Experiment in all cases: relative viability vs DMSO control (72 h) (fraction); higher = more viable cells
SYO-1 = test system: SYO-1
Outline: (§1)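 Sarcoma cell lines were plated in 384 wells to reach 80–90% confluence, treated after 24 h with 2.5 µl of serially diluted compound and held 72 h at 37 °C, 5% CO2. Relative viability was taken as percent growth from ATPLite readings, averaged over up to triplicate wells. The values were rescaled so that 1 marks full and 0 marks none.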

RD = test system: RD
Outline: as §1

SW684 = test system: SW684
Outline: as §1

SW872 = test system: SW872
Outline: as §1

HS729 = test system: HS729
Outline: as §1

SW1353 = test system: SW1353
Outline: as §1

KHOS-NP = test system: KHOS-NP
Outline: as §1

G401 = test system: G401
Outline: as §1

HT1080 = test system: HT1080
Outline: as §1

RD-ES = test system: RD-ES
Outline: as §1

SK-LMS-1 = test system: SK-LMS-1
Outline: as §1

KHOS-240S = test system: KHOS-240S
Outline: as §1

Cc1cc2c(F)c(Oc3ncnn4cc(OC[C@@H](C)O)c(C)c34)ccc2[nH]1 [Brivanib]
Details	relative viability
G401, 0.00017 µM	0.939
G401, 0.00051 µM	0.989
G401, 0.00152 µM	0.965
G401, 0.00457 µM	0.921
G401, 0.01372 µM	0.969
G401, 0.04115 µM	0.979
G401, 0.1235 µM	0.964
G401, 0.3704 µM	0.99
G401, 1.111 µM	0.979
G401, 3.333 µM	0.955
G401, 10 µM	0.922
HS729, 0.00017 µM	0.93
HS729, 0.00051 µM	0.949
HS729, 0.00152 µM	0.955
HS729, 0.00457 µM	0.943
HS729, 0.01372 µM	0.929
HS729, 0.04115 µM	0.912
HS729, 0.1235 µM	0.925
HS729, 0.3704 µM	0.964
HS729, 1.111 µM	0.963
HS729, 3.333 µM	0.921
HS729, 10 µM	0.856
HT1080, 0.00017 µM	1.04
HT1080, 0.00051 µM	1.026
HT1080, 0.00152 µM	1.05
HT1080, 0.00457 µM	1.06
HT1080, 0.01372 µM	1.07
HT1080, 0.04115 µM	1.02
HT1080, 0.1235 µM	1.02
HT1080, 0.3704 µM	1.06
HT1080, 1.111 µM	1.05
HT1080, 3.333 µM	1.07
HT1080, 10 µM	1.01
KHOS-240S, 0.00017 µM	1.04
KHOS-240S, 0.00051 µM	1.035
KHOS-240S, 0.00152 µM	1.03
KHOS-240S, 0.00457 µM	1.05
KHOS-240S, 0.01372 µM	1.05
KHOS-240S, 0.04115 µM	1.04
KHOS-240S, 0.1235 µM	1.04
KHOS-240S, 0.3704 µM	1.05
KHOS-240S, 1.111 µM	1.03
KHOS-240S, 3.333 µM	1.041
KHOS-240S, 10 µM	0.961
KHOS-NP, 0.00017 µM	1.04
KHOS-NP, 0.00051 µM	1.05
KHOS-NP, 0.00152 µM	1.05
KHOS-NP, 0.00457 µM	1.04
KHOS-NP, 0.01372 µM	1.06
KHOS-NP, 0.04115 µM	1.058
KHOS-NP, 0.1235 µM	1.06
KHOS-NP, 0.3704 µM	1.07
KHOS-NP, 1.111 µM	1.05
KHOS-NP, 3.333 µM	1.07
KHOS-NP, 10 µM	0.964
RD, 0.00017 µM	1.07
RD, 0.00051 µM	1.06
RD, 0.00152 µM	1.08
RD, 0.00457 µM	1.07
RD, 0.01372 µM	1.11
RD, 0.04115 µM	1.1
RD, 0.1235 µM	1.1
RD, 0.3704 µM	1.091
RD, 1.111 µM	1.08
RD, 3.333 µM	1.07
RD, 10 µM	0.964
RD-ES, 0.00017 µM	0.961
RD-ES, 0.00051 µM	0.966
RD-ES, 0.00152 µM	0.985
RD-ES, 0.00457 µM	1
RD-ES, 0.01372 µM	0.996
RD-ES, 0.04115 µM	1
RD-ES, 0.1235 µM	1.01
RD-ES, 0.3704 µM	0.994
RD-ES, 1.111 µM	1
RD-ES, 3.333 µM	0.988
RD-ES, 10 µM	0.947
SK-LMS-1, 0.00017 µM	1.03
SK-LMS-1, 0.00051 µM	1.03
SK-LMS-1, 0.00152 µM	1.02
SK-LMS-1, 0.00457 µM	1.03
SK-LMS-1, 0.01372 µM	1.02
SK-LMS-1, 0.04115 µM	1.03
SK-LMS-1, 0.1235 µM	1.06
SK-LMS-1, 0.3704 µM	1.02
SK-LMS-1, 1.111 µM	1.04
SK-LMS-1, 3.333 µM	1.03
SK-LMS-1, 10 µM	0.687
SW684, 0.00017 µM	1.1
SW684, 0.00051 µM	1.11
SW684, 0.00152 µM	1.12
SW684, 0.00457 µM	1.13
SW684, 0.01372 µM	1.146
SW684, 0.04115 µM	1.15
SW684, 0.1235 µM	1.12
SW684, 0.3704 µM	1.15
SW684, 1.111 µM	1.12
SW684, 3.333 µM	1.16
SW684, 10 µM	1.21
SW872, 0.00017 µM	0.989
SW872, 0.00051 µM	0.999
SW872, 0.00152 µM	0.996
SW872, 0.00457 µM	1.04
SW872, 0.01372 µM	1.009
SW872, 0.04115 µM	1
SW872, 0.1235 µM	1.03
SW872, 0.3704 µM	1.05
SW872, 1.111 µM	1.06
SW872, 3.333 µM	1.056
SW872, 10 µM	1.02
SW1353, 0.00017 µM	0.963
SW1353, 0.00051 µM	0.991
SW1353, 0.00152 µM	0.952
SW1353, 0.00457 µM	0.96
SW1353, 0.01372 µM	0.976
SW1353, 0.04115 µM	0.935
SW1353, 0.1235 µM	0.944
SW1353, 0.3704 µM	1.01
SW1353, 1.111 µM	0.982
SW1353, 3.333 µM	1
SW1353, 10 µM	0.997
SYO-1, 0.00017 µM	0.941
SYO-1, 0.00051 µM	0.936
SYO-1, 0.00152 µM	0.931
SYO-1, 0.00457 µM	0.935
SYO-1, 0.01372 µM	0.919
SYO-1, 0.04115 µM	0.925
SYO-1, 0.1235 µM	0.921
SYO-1, 0.3704 µM	0.906
SYO-1, 1.111 µM	0.861
SYO-1, 3.333 µM	0.792
SYO-1, 10 µM	0.609
